Publication PMC12721288, “Functional expression and properties of the tick α6 homomeric nicotinic acetylcholine receptor in Xenopus laevis oocytes” (Current Research in Parasitology & Vector-borne Diseases, 2025)
Like-named read-outs stand apart in the source and are kept apart here.

What was measured:
Format in all cases: cell-based, Ixodes ricinus
[1] = system: T1, Iricα6 homomeric nicotinic acetylcholine receptor; assay: two-electrode voltage clamp in Xenopus oocytes, inhibition of ACh-evoked currents
T1 construct: Iricα6 homomeric receptor expressed in Xenopus laevis oocytes (co-injected with C. elegans RIC-3)

[2] = system: T1, Iricα6 homomeric nicotinic acetylcholine receptor; assay: two-electrode voltage clamp in Xenopus oocytes, agonist-like dose-response
[3] = system: T1, Iricα6 homomeric nicotinic acetylcholine receptor; assay: two-electrode voltage clamp in Xenopus oocytes, agonist dose-response

SMILES: CO[C@H]1CC=C2CCN3CCC4=C(CC(=O)OC4)[C@]23C1 [DHβE, dihydro-β-erythroidine]
- IC50 [1]: 0.00135 µM

SMILES: CNC1(C)C2CCC(C2)C1(C)C (stereo not shown) [MECA, mecamylamine]
- EC50 [2]: 0.0126 µM

SMILES: CC(=O)OCC[N+](C)(C)C [ACh, acetylcholine]
- EC50 [3]: 27.7 ± 2.44 µM

SMILES: CCN1C[C@]2(COC(=O)c3ccccc3N3C(=O)C[C@H](C)C3=O)CC[C@H](OC)[C@@]34[C@@H]5C[C@H]6[C@H](OC)[C@@H]5[C@](O)(C[C@@H]6OC)[C@@](O)([C@@H](OC)[C@H]23)[C@@H]14 [MLA, methyllicaconitine]
- IC50 ([1]; read-out: IC50): 0.00856 µM
